These results are taken from PubChem BioAssay (NCI).

Test systems include HOP-62 NSCLC; NCI-H522 lung; HT29 colon; CAKI-1 renal; OVCAR-8 ovarian; SK-MEL-28 melanoma; HCT-15 colon; SNB-19 CNS; PC-3 prostate; SW-620 colon.
Assay in all cases: DTP human tumour cell line panel, 48 h

The structures appear in SMILES notation.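 Grown in 96-well plates, cells were treated for 48 hours with each compound at five concentrations. Insufficient inhibition: endpoint recorded as highest concentration tested. GI50 = concentration required for 50% inhibition of growth. The concentration for full growth arrest is given as TGI.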

One may read the GI50 as the concentration at which growth is held to half of that of the control. One may read the TGI as the concentration at which net growth stops. A high value points to lower sensitivity of the cells.

Turning to `CC(=O)c1c[nH]c2ccc(-c3ccnc(Nc4ccc(NC(=O)C5CCCC5)c(CN5CCOCC5)c4)n3)cc12`, the GI50 with HOP-62 NSCLC is 40.3 nM; in the experiment with NCI-H522 lung, 43.9 nM; in the experiment on HT29 colon, 22.6 nM; in the experiment on CAKI-1 renal, 16.8 nM; with OVCAR-8 ovarian, 36.2 nM; with SK-MEL-28 melanoma it was 40.4 nM. Also, the concentration for 50% growth inhibition (GI50) in the experiment with HCT-15 colon is 55.8 nM; with SNB-19 CNS, 41 nM; with PC-3 prostate it was 32.5 nM; in the experiment on SW-620 colon, 38.7 nM. For the same molecule, the TGI is 3520 nM with HOP-62 NSCLC; 309 nM in the experiment on NCI-H522 lung; 2250 nM with HT29 colon; 561 nM in the experiment with CAKI-1 renal; > 100000 nM with OVCAR-8 ovarian; 270 nM in the experiment with SK-MEL-28 melanoma. For the same molecule, the TGI in the experiment on HCT-15 colon worked out at 758 nM; in the experiment on SNB-19 CNS, 7960 nM; in the experiment with PC-3 prostate, 1050 nM; in the experiment on SW-620 colon, 551 nM.
With `COc1ccc2c(c1O)[C@@]13CCCC=C1[C@@H](C2)[N+](C)(C)CC3`, the TGI with HOP-62 NSCLC, in the experiment with NCI-H522 lung, with HT29 colon, with CAKI-1 renal, with OVCAR-8 ovarian and in the experiment on SK-MEL-28 melanoma was > 100000 nM each time. The total growth inhibition concentration (TGI) in the experiment on HCT-15 colon, in the experiment with SNB-19 CNS, with PC-3 prostate and in the experiment on SW-620 colon was > 100000 nM in each case.
